Results published in BigSolDB 2.1.

SMILES: CC1(C)COP(=O)(C(C)(C)O)OC1
- solubility (mole fraction) (in 1,2-dichloroethane, 283.65 K): 0.00134
- solubility (mole fraction) (in 1,2-dichloroethane, 288.55 K): 0.00156
- solubility (mole fraction) (in 1,2-dichloroethane, 293.65 K): 0.00196
- solubility (mole fraction) (in 1,2-dichloroethane, 298.25 K): 0.00249
- solubility (mole fraction) (in 1,2-dichloroethane, 303.15 K): 0.00308
- solubility (mole fraction) (in 1,2-dichloroethane, 308.05 K): 0.00418
- solubility (mole fraction) (in 1,2-dichloroethane, 313 K): 0.00519
- solubility (mole fraction) (in 1,2-dichloroethane, 317.8 K): 0.00654
- solubility (mole fraction) (in 1,2-dichloroethane, 322.7 K): 0.00788
- solubility (mole fraction) (in acetone, 278.15 K): 0.0024
- solubility (mole fraction) (in acetone, 283.65 K): 0.00286
- solubility (mole fraction) (in acetone, 288.25 K): 0.00329
- solubility (mole fraction) (in acetone, 293.75 K): 0.00415
- solubility (mole fraction) (in acetone, 298.65 K): 0.00505
- solubility (mole fraction) (in acetone, 303.15 K): 0.00596
- solubility (mole fraction) (in acetone, 308.05 K): 0.007
- solubility (mole fraction) (in acetone, 312.95 K): 0.00821
- solubility (mole fraction) (in acetone, 317.75 K): 0.00998
- solubility (mole fraction) (in acetone, 322.55 K): 0.0118
- solubility (mole fraction) (in acetonitrile, 278.65 K): 0.00174
- solubility (mole fraction) (in acetonitrile, 283.65 K): 0.00222
- solubility (mole fraction) (in acetonitrile, 288.85 K): 0.00295
- solubility (mole fraction) (in acetonitrile, 293.75 K): 0.00357
- solubility (mole fraction) (in acetonitrile, 298.25 K): 0.00413
- solubility (mole fraction) (in acetonitrile, 303.2 K): 0.00513
- solubility (mole fraction) (in acetonitrile, 308.15 K): 0.00629
- solubility (mole fraction) (in acetonitrile, 312.9 K): 0.00754
- solubility (mole fraction) (in acetonitrile, 318.3 K): 0.00901
- solubility (mole fraction) (in acetonitrile, 322.8 K): 0.0111
- solubility (mole fraction) (in acetonitrile, 328 K): 0.0135
- solubility (mole fraction) (in acetonitrile, 332.65 K): 0.0165
- solubility (mole fraction) (in chloroform, 278.9 K): 0.0132
- solubility (mole fraction) (in chloroform, 283.85 K): 0.0139
- solubility (mole fraction) (in chloroform, 288.55 K): 0.0147
- solubility (mole fraction) (in chloroform, 293.85 K): 0.0174
- solubility (mole fraction) (in chloroform, 298.3 K): 0.0212
- solubility (mole fraction) (in chloroform, 303.25 K): 0.0244
- solubility (mole fraction) (in chloroform, 308.05 K): 0.0302
- solubility (mole fraction) (in chloroform, 313.15 K): 0.0364
- solubility (mole fraction) (in chloroform, 317.75 K): 0.0421
- solubility (mole fraction) (in chloroform, 322.75 K): 0.0508
- solubility (mole fraction) (in ethanol, 278.85 K): 0.0199
- solubility (mole fraction) (in ethanol, 283.75 K): 0.023
- solubility (mole fraction) (in ethanol, 288.55 K): 0.0265
- solubility (mole fraction) (in ethanol, 293.65 K): 0.0315
- solubility (mole fraction) (in ethanol, 298.35 K): 0.0349
- solubility (mole fraction) (in ethanol, 303.55 K): 0.0403
- solubility (mole fraction) (in ethanol, 308.55 K): 0.046
- solubility (mole fraction) (in ethanol, 313.25 K): 0.0528
- solubility (mole fraction) (in ethanol, 318.05 K): 0.0592
- solubility (mole fraction) (in ethanol, 323.15 K): 0.065
- solubility (mole fraction) (in ethyl acetate, 293.75 K): 0.00129
- solubility (mole fraction) (in ethyl acetate, 298.35 K): 0.00141
- solubility (mole fraction) (in ethyl acetate, 303.35 K): 0.00187
- solubility (mole fraction) (in ethyl acetate, 308.15 K): 0.00231
- solubility (mole fraction) (in ethyl acetate, 313.35 K): 0.0028
- solubility (mole fraction) (in ethyl acetate, 318 K): 0.00372
- solubility (mole fraction) (in ethyl acetate, 322.75 K): 0.00445
- solubility (mole fraction) (in ethyl acetate, 328.25 K): 0.00563
- solubility (mole fraction) (in ethyl acetate, 333.55 K): 0.00714
- solubility (mole fraction) (in ethyl acetate, 337.65 K): 0.00819
- solubility (mole fraction) (in ethyl acetate, 342.85 K): 0.0102
- solubility (mole fraction) (in methanol, 279.05 K): 0.0374
- solubility (mole fraction) (in methanol, 283.75 K): 0.0416
- solubility (mole fraction) (in methanol, 288.25 K): 0.0472
- solubility (mole fraction) (in methanol, 293.75 K): 0.0527
- solubility (mole fraction) (in methanol, 298.65 K): 0.0577
- solubility (mole fraction) (in methanol, 303.25 K): 0.0653
- solubility (mole fraction) (in methanol, 308.45 K): 0.0725
- solubility (mole fraction) (in methanol, 312.95 K): 0.0792
- solubility (mole fraction) (in methanol, 317.75 K): 0.0862
- solubility (mole fraction) (in methanol, 322.65 K): 0.0968
- solubility (mole fraction) (in water, 283.55 K): 0.00713
- solubility (mole fraction) (in water, 288.85 K): 0.00723
- solubility (mole fraction) (in water, 294.7 K): 0.007
- solubility (mole fraction) (in water, 298.25 K): 0.00711
- solubility (mole fraction) (in water, 303.3 K): 0.00736
- solubility (mole fraction) (in water, 308.25 K): 0.00757
- solubility (mole fraction) (in water, 313.35 K): 0.00805
- solubility (mole fraction) (in water, 318.3 K): 0.00861
- solubility (mole fraction) (in water, 323.15 K): 0.00911
- solubility (mole fraction) (in water, 328.05 K): 0.0102
- solubility (mole fraction) (in water, 332.9 K): 0.0112
- solubility (mole fraction) (in water, 338.15 K): 0.0128
- solubility (mole fraction) (in water, 343.15 K): 0.0142
